Test results: patent US12398154B2, “Azaquinazoline pan-KRas inhibitors” (Mirati Therapeutics, Inc., priority 2020, dated 2025)

What was measured:
KRas G12R = KRas G12R (Homo sapiens, UniProt P01116, G12R); test: biochemical;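 note: TR-FRET displacement assay of compound binding to KRas, read after one hour at room temperature, potency from a four-parameter fit of percent-of-control values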
Protocol: (§1) The ability of a compound to bind to KRas was measured using a TR-FRET displacement assay. […] After a 60-minute incubation at room temperature, the reaction was measured using a BMG LABTECH CLARIO star Plus via TR-FRET. […] The POC values were fit to a 4-parameter IC50 equation and the IC50 value reported.

pERK in ASPC1 cells = test: Inhibition of KRas phosphorylation of ERK (Cisbio HTRF pERK assay); conditions: Homo sapiens, ASPC1, read-out: Inhibition (HTRF IC50) of KRas-mediated Phosphorylation of ERK, AsPC-1
pERK in H727 cells = test: as above; conditions: Homo sapiens, NCI-H727, read-out: Inhibition (HTRF IC50) of KRas-mediated Phosphorylation of ERK, H727
pERK in MKN1 cells = test: as above; conditions: Homo sapiens, MKN-1, 3 h, read-out: Inhibition (HTRF IC50) of KRas-mediated Phosphorylation of ERK, MKN1
KRas G12D = KRas G12D (Homo sapiens, UniProt P01116, G12D); test: biochemical;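 note: TR-FRET displacement binding assay on KRas, read after a one-hour incubation at room temperature, IC50 fitted from percent-of-control values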
KRas G12D, sequence (P01116 1-169 isoform P01116-2 G12D): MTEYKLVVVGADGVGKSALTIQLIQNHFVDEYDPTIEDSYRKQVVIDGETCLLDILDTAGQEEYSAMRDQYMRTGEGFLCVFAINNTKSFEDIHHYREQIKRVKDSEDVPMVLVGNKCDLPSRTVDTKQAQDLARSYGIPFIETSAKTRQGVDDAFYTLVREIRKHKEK
Protocol: as §1

KRas G12V = KRas G12V (Homo sapiens, UniProt P01116, G12V); test: biochemical;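 note: KRas binding measured by TR-FRET displacement at room temperature, IC50 fitted from percent of control values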
KRas G12V, sequence (P01116 1-169 isoform P01116-2 G12V): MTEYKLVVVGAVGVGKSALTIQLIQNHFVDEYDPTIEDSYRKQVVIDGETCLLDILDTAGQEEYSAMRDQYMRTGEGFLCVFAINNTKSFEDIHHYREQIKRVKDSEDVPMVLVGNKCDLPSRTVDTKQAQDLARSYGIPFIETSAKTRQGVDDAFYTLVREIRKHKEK
Protocol: as §1

pERK in PSN1 cells = test: Inhibition of KRas phosphorylation of ERK (Cisbio HTRF pERK assay); conditions: Homo sapiens, PSN1, 3 h, read-out: Inhibition (HTRF IC50) of KRas-mediated Phosphorylation of ERK, PSN1

KRas G12R, sequence (P01116 1-169 isoform P01116-2 G12R): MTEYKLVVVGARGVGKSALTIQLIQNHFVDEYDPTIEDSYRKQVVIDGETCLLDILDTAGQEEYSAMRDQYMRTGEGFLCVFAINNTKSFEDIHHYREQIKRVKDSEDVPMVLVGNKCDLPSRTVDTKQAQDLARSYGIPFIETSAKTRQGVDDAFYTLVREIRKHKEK

## CCc1c(F)ccc2cc(O)cc(-c3ncc4c(N5CCCC6(CC(F)C6)C5)nc(OC[C@@]56CCCN5C[C@H](F)C6)nc4c3F)c12 (stereo partly drawn) [Example 344, 5-ethyl-6-fluoro-4-(8-fluoro-4-(2-fluoro-6-azaspiro[3.5]nonan-6-yl)-2-(((2R,7aS)-2-fluorohexahydro-1H-pyrrolizin-7a-yl)methoxy)pyrido[4,3-d]pyrimidin-7-yl)naphthalen-2-ol]
KRas G12R
  IC50: 0.094 µM
pERK in ASPC1 cells
  IC50: 3.41 µM
pERK in H727 cells
  IC50: 4.82 µM
pERK in MKN1 cells
  IC50: 0.796 µM
KRas G12D
  IC50: 0.138 µM
KRas G12V
  IC50: 0.083 µM
pERK in PSN1 cells
  IC50: ≥ 10 µM

## CCc1c(F)ccc2cc(O)cc(-c3ncc4c(NCCC5CCC(=O)N5)nc(OC[C@@]56CCCN5C[C@H](F)C6)nc4c3F)c12 (stereo partly drawn) [Example 377, 5-(2-((7-(8-ethyl-7-fluoro-3-hydroxynaphthalen-1-yl)-8-fluoro-2-(((2R,7aS)-2-fluorotetrahydro-1H-pyrrolizin-7a(5H)-yl)methoxy)pyrido[4,3-d]pyrimidin-4-yl)amino)ethyl)pyrrolidin-2-one]
KRas G12R
  IC50: 0.012 µM
pERK in ASPC1 cells
  IC50: ≥ 10 µM
pERK in H727 cells
  IC50: 7.78 µM
pERK in MKN1 cells
  IC50: 2.3 µM
KRas G12D
  IC50: ≤ 0.002 µM
KRas G12V
  IC50: 0.003 µM
pERK in PSN1 cells
  IC50: ≥ 10 µM

## CCc1c(F)ccc2cc(O)cc(-c3ncc4c(NCC5CCNC5=O)nc(OC[C@@]56CCCN5C[C@H](F)C6)nc4c3F)c12 (stereo partly drawn) [Example 368, 3-(((7-(8-ethyl-7-fluoro-3-hydroxynaphthalen-1-yl)-8-fluoro-2-(((2R,7aS)-2-fluorotetrahydro-1H-pyrrolizin-7a(5H)-yl)methoxy)pyrido[4,3-d]pyrimidin-4-yl)amino)methyl)pyrrolidin-2-one]
KRas G12R
  IC50: 0.011 µM
pERK in ASPC1 cells
  IC50: 4.68 µM
pERK in H727 cells
  IC50: 0.617 µM
pERK in MKN1 cells
  IC50: 0.191 µM
KRas G12D
  IC50: 0.004 µM
KRas G12V
  IC50: 0.024 µM
pERK in PSN1 cells
  IC50: ≥ 10 µM

## Nc1cc2n(n1)CCCN(c1nc(OC[C@@]34CCCN3C[C@H](F)C4)nc3c(F)c(-c4cc(O)cc5ccc(F)c(Br)c45)ncc13)C2 [Example 408, 4-(4-(2-amino-7,8-dihydro-4H-pyrazolo[1,5-a][1,4]diazepin-5(6H)-yl)-8-fluoro-2-(((2R,7aS)-2-fluorohexahydro-1H-pyrrolizin-7a-yl)methoxy)pyrido[4,3-d]pyrimidin-7-yl)-5-bromo-6-fluoronaphthalen-2-ol]
KRas G12R
  IC50: ≤ 0.002 µM
pERK in ASPC1 cells
  IC50: 0.721 µM
pERK in H727 cells
  IC50: 0.57 µM
pERK in MKN1 cells
  IC50: 0.351 µM
KRas G12D
  IC50: ≤ 0.002 µM
KRas G12V
  IC50: ≤ 0.002 µM
pERK in PSN1 cells
  IC50: ≥ 10 µM

## CCc1c(F)ccc2cc(O)cc(-c3ncc4c(N5CCOCC6(CCOCC6)C5)nc(OC[C@@]56CCCN5C[C@H](F)C6)nc4c3F)c12 [Example 500, 5-ethyl-6-fluoro-4-(8-fluoro-2-(((2R,7aS)-2-fluorohexahydro-1H-pyrrolizin-7a-yl)methoxy)-4-(3,8-dioxa-11-azaspiro[5.6]dodecan-11-yl)pyrido[4,3-d]pyrimidin-7-yl)naphthalen-2-ol]
KRas G12R
  IC50: 0.103 µM
pERK in ASPC1 cells
  IC50: 1.1 µM
pERK in H727 cells
  IC50: 1.9 µM
pERK in MKN1 cells
  IC50: 0.239 µM
KRas G12D
  IC50: 0.235 µM
KRas G12V
  IC50: 0.104 µM
pERK in PSN1 cells
  IC50: ≥ 10 µM

## CCc1c(F)ccc2cc(O)cc(-c3ncc4c(N5CCCC(NS(N)(=O)=O)C5)nc(OC[C@@]56CCCN5C[C@H](F)C6)nc4c3F)c12 (stereo partly drawn) [Example 352, 7-(8-ethyl-7-fluoro-3-hydroxy-1-naphthyl)-8-fluoro-2-(((2R,7aS)-2-fluorohexahydro-1H-pyrrolizin-7a-yl)methoxy)-4-[3-(sulfamoylamino)-1-piperidyl]pyrido[4,3-d]pyrimidine]
KRas G12R
  IC50: ≤ 0.002 µM
pERK in ASPC1 cells
  IC50: 0.948 µM
pERK in H727 cells
  IC50: 1.27 µM
pERK in MKN1 cells
  IC50: 0.046 µM
KRas G12D
  IC50: ≤ 0.002 µM
KRas G12V
  IC50: ≤ 0.002 µM
pERK in PSN1 cells
  IC50: ≥ 10 µM

## O=C1NCC12CCCN(c1nc(OC[C@@]34CCCN3C[C@H](F)C4)nc3c(F)c(-c4cc(O)cc5ccc(F)c(Cl)c45)ncc13)C2 (stereo partly drawn) [Example 424, 6-(7-(8-chloro-7-fluoro-3-hydroxynaphthalen-1-yl)-8-fluoro-2-(((2R,7aS)-2-fluorohexahydro-1H-pyrrolizin-7a-yl)methoxy)pyrido[4,3-d]pyrimidin-4-yl)-2,6-diazaspiro[3.5]nonan-1-one]
KRas G12R
  IC50: 0.008 µM
pERK in ASPC1 cells
  IC50: 0.817 µM
pERK in H727 cells
  IC50: 1.3 µM
pERK in MKN1 cells
  IC50: 0.095 µM
KRas G12D
  IC50: 0.003 µM
KRas G12V
  IC50: 0.004 µM
pERK in PSN1 cells
  IC50: 2.81 µM

## CCc1c(F)ccc2cc(O)cc(-c3ncc4c(NCC5NC(=O)NC5=O)nc(OC[C@@]56CCCN5C[C@H](F)C6)nc4c3F)c12 (stereo partly drawn) [Example 369, 5-(((7-(8-ethyl-7-fluoro-3-hydroxynaphthalen-1-yl)-8-fluoro-2-(((2R,7aS)-2-fluorohexahydro-1H-pyrrolizin-7a-yl)methoxy)pyrido[4,3-d]pyrimidin-4-yl)amino)methyl)imidazolidine-2,4-dione]
KRas G12R
  IC50: 0.004 µM
pERK in ASPC1 cells
  IC50: 1.34 µM
pERK in H727 cells
  IC50: 0.471 µM
pERK in MKN1 cells
  IC50: 0.294 µM
KRas G12D
  IC50: 0.005 µM
KRas G12V
  IC50: 0.003 µM
pERK in PSN1 cells
  IC50: ≥ 10 µM

## C#Cc1c(F)ccc2cc(O)cc(-c3ncc4c(N5CCCC6(CNS(=O)(=O)N6)C5)nc(OC[C@@]56CCCN5C[C@H](F)C6)nc4c3F)c12 (stereo partly drawn) [Example 396, 7-(7-(8-ethynyl-7-fluoro-3-hydroxynaphthalen-1-yl)-8-fluoro-2-(((2R,7aS)-2-fluorohexahydro-1H-pyrrolizin-7a-yl)methoxy)pyrido[4,3-d]pyrimidin-4-yl)-2-thia-1,3,7-triazaspiro[4.5]decane 2,2-dioxide]
KRas G12R
  IC50: 0.003 µM
pERK in ASPC1 cells
  IC50: 3.08 µM
pERK in H727 cells
  IC50: 7.48 µM
pERK in MKN1 cells
  IC50: 0.525 µM
KRas G12D
  IC50: ≤ 0.002 µM
KRas G12V
  IC50: 0.003 µM
pERK in PSN1 cells
  IC50: ≥ 10 µM

## CCc1c(F)ccc2cc(O)cc(-c3ncc4c(N5C[C@H](O)CC[C@H](O)C5)nc(OC[C@@]56CCCN5C[C@H](F)C6)nc4c3F)c12 [Example 491, (3R,6S)-1-(7-(8-ethyl-7-fluoro-3-hydroxynaphthalen-1-yl)-8-fluoro-2-(((2R,7aS)-2-fluorohexahydro-1H-pyrrolizin-7a-yl)methoxy)pyrido[4,3-d]pyrimidin-4-yl)azepane-3,6-diol]
KRas G12R
  IC50: 0.006 µM
pERK in ASPC1 cells
  IC50: 1.71 µM
pERK in H727 cells
  IC50: 1.53 µM
pERK in MKN1 cells
  IC50: 0.182 µM
KRas G12D
  IC50: 0.004 µM
KRas G12V
  IC50: 0.004 µM
pERK in PSN1 cells
  IC50: ≥ 10 µM

## CCc1c(F)ccc2cc(O)cc(-c3ncc4c(NCCC5CNC(=O)N5)nc(OC[C@@]56CCCN5C[C@H](F)C6)nc4c3F)c12 (stereo partly drawn) [Example 382, 4-(2-((7-(8-ethyl-7-fluoro-3-hydroxynaphthalen-1-yl)-8-fluoro-2-(((2R,7aS)-2-fluorohexahydro-1H-pyrrolizin-7a-yl)methoxy)pyrido[4,3-d]pyrimidin-4-yl)amino)ethyl) imidazolidin-2-one]
KRas G12R
  IC50: 0.003 µM
pERK in ASPC1 cells
  IC50: ≥ 10 µM
pERK in H727 cells
  IC50: 5.9 µM
pERK in MKN1 cells
  IC50: 0.781 µM
KRas G12D
  IC50: 0.009 µM
KRas G12V
  IC50: ≤ 0.002 µM
pERK in PSN1 cells
  IC50: ≥ 10 µM

## CCc1c(F)ccc2cc(O)cc(-c3ncc4c(NCc5cc(C(N)=O)nn5C)nc(OC[C@@]56CCCN5C[C@H](F)C6)nc4c3F)c12 [Example 385, 5-(((7-(8-ethyl-7-fluoro-3-hydroxynaphthalen-1-yl)-8-fluoro-2-(((2R,7aS)-2-fluorohexahydro-1H-pyrrolizin-7a-yl)methoxy)pyrido[4,3-d]pyrimidin-4-yl)amino)methyl)-1-methyl-1H-pyrazole-3-carboxamide]
KRas G12R
  IC50: ≤ 0.002 µM
pERK in ASPC1 cells
  IC50: ≥ 10 µM
pERK in H727 cells
  IC50: 4.65 µM
pERK in MKN1 cells
  IC50: 0.421 µM
KRas G12D
  IC50: ≤ 0.002 µM
KRas G12V
  IC50: ≤ 0.002 µM
pERK in PSN1 cells
  IC50: ≥ 10 µM

## C#Cc1c(F)ccc2cc(O)cc(-c3ncc4c(N5CCCC6(CNC(=O)N6)C5)nc(OC[C@@]56CCCN5C[C@H](F)C6)nc4c3F)c12 (stereo partly drawn) [Example 395, 7-(7-(8-ethynyl-7-fluoro-3-hydroxynaphthalen-1-yl)-8-fluoro-2-(((2R,7aS)-2-fluorohexahydro-1H-pyrrolizin-7a-yl)methoxy)pyrido[4,3-d]pyrimidin-4-yl)-1,3,7-triazaspiro[4.5]decan-2-one]
KRas G12R
  IC50: ≤ 0.002 µM
pERK in ASPC1 cells
  IC50: 0.477 µM
pERK in H727 cells
  IC50: 1.38 µM
pERK in MKN1 cells
  IC50: 0.299 µM
KRas G12D
  IC50: ≤ 0.002 µM
KRas G12V
  IC50: ≤ 0.002 µM
pERK in PSN1 cells
  IC50: ≥ 10 µM

## CCc1c(F)ccc2cc(O)cc(-c3ncc4c(N5CCCOC(C)(C)C5)nc(OC[C@@]56CCCN5C[C@H](F)C6)nc4c3F)c12 [Example 501, 4-(4-(2,2-dimethyl-1,4-oxazepan-4-yl)-8-fluoro-2-(((2R,7aS)-2-fluorohexahydro-1H-pyrrolizin-7a-yl)methoxy)pyrido[4,3-d]pyrimidin-7-yl)-5-ethyl-6-fluoronaphthalen-2-ol]
KRas G12R
  IC50: 0.176 µM
pERK in ASPC1 cells
  IC50: 2.06 µM
pERK in H727 cells
  IC50: 3.23 µM
pERK in MKN1 cells
  IC50: 0.225 µM
KRas G12D
  IC50: 0.606 µM
KRas G12V
  IC50: 0.169 µM
pERK in PSN1 cells
  IC50: ≥ 10 µM

## CCc1c(F)ccc2cc(O)cc(-c3ncc4c(NCC5CNC(=O)N5)nc(OC[C@@]56CCCN5C[C@H](F)C6)nc4c3F)c12 (stereo partly drawn) [Example 370, 4-(((7-(8-ethyl-7-fluoro-3-hydroxynaphthalen-1-yl)-8-fluoro-2-(((2R,7aS)-2-fluorohexahydro-1H-pyrrolizin-7a-yl)methoxy)pyrido[4,3-d]pyrimidin-4-yl)amino)methyl)imidazolidin-2-one]
KRas G12R
  IC50: 0.005 µM
pERK in ASPC1 cells
  IC50: 2.98 µM
pERK in H727 cells
  IC50: 0.516 µM
pERK in MKN1 cells
  IC50: 0.33 µM
KRas G12D
  IC50: 0.011 µM
KRas G12V
  IC50: ≤ 0.002 µM
pERK in PSN1 cells
  IC50: ≥ 10 µM
